From article PMC12377202, “Design, synthesis, and cytotoxic evaluation of quinazoline-based derivatives as VEGER-2 inhibitors: comparative study against EGFR kinase activity, induction of apoptosis, and molecular docking study” (RSC Advances, 2025)

What was measured:
Type in all cases: cell-based, human
[1] = tested on: caspase-9; experiment: Caspase-9 expression level in HepG-2 cells; conditions: for Caspase-9 ± SE: HepG-2, at IC50 concentrations, control 11.01
Experimental: (§1) All synthesized compounds were tested at their cytotoxic concentrations in HepG-2 cells for analysis of gene expression levels of apoptotic markers caspase-3, caspase-9, TNF-α, and IL-6 proteins, and only two active compounds were tested for BAX and Bcl-2 proteins.
(§2) through Flow cytometric analysis.
(§3) Pellets were collected again and incubated with
(§4) Total RNA from vehicle-treated
(§5) (Thermo Scientific, USA).
(§6) All experiments were performed in […]

[2] = tested on: HepG-2; experiment: MTT anti-proliferative assay, HepG-2; conditions: Homo sapiens, HepG2
[3] = tested on: TNF-alpha; experiment: TNF-alpha level in HepG-2 cells; conditions: control 43.48
Experimental: as §1, §2, §3, §4, §5, §6

[4] = tested on: MCF-7; experiment: MTT anti-proliferative assay, MCF-7; conditions: Homo sapiens, MCF7
[5] = tested on: K-562; experiment: MTT anti-proliferative assay, K-562; conditions: Homo sapiens, K562
[6] = tested on: IL-6R; experiment: IL-6R level in HepG-2 cells
Experimental: as §1, §2, §3, §4, §5, §6

[7] = tested on: caspase-3; experiment: Caspase-3 expression level in HepG-2 cells; conditions: for Caspase-3 ± SE: HepG-2, at IC50 concentrations, control 0.460
Experimental: as §1, §2, §3, §4, §5, §6

`O=C(Cn1cnc2cc(Cl)ccc2c1=O)Nc1ccc(F)c(Cl)c1` [8e, N-(3-Chloro-4-fluorophenyl)-2-(7-chloro-4-oxoquinazolin-3(4H)-yl)acetamide] was tested, and the “Caspase-9 ± SE” value [1] was 48.44 ± 1.24 ng/L, the “Caspase-9 ± SE” value ([1]; listed as R5) was 48.44 ng/L and the “caspase-9 expression level, fold increase” value ([1]; HepG-2, vs control cells) was 4.4 fold. It also gave a viability at 0.195 µg/mL ([2]; HepG-2, 0.195 ug/ml) of 93.8%, a cytotoxicity at 0.195 µg/mL ([2]; HepG-2, 0.195 ug/ml, read-out: Toxicity %) of 6.15% and a viability at 0.391 µg/mL ([2]; HepG-2, 0.391 ug/ml) of 75.6%. For the same molecule, the cytotoxicity at 0.391 µg/mL ([2]; HepG-2, 0.391 ug/ml, read-out: Toxicity %) was 24.4%, the viability at 0.781 µg/mL ([2]; HepG-2, 0.781 ug/ml) was 62.3% and the cytotoxicity at 0.781 µg/mL ([2]; HepG-2, 0.781 ug/ml, read-out: Toxicity %) was 37.7%. It also gave a viability at 1.563 µg/mL ([2]; HepG-2, 1.563 ug/ml) of 47.6%, a cytotoxicity at 1.563 µg/mL ([2]; HepG-2, 1.563 ug/ml, read-out: Toxicity %) of 52.4% and a viability at 3.125 µg/mL ([2]; HepG-2, 3.125 ug/ml) of 23.1%. The cytotoxicity at 3.125 µg/mL ([2]; HepG-2, 3.125 ug/ml, read-out: Toxicity %) was 76.9%, the viability at 6.25 µg/mL ([2]; HepG-2, 6.25 ug/ml) was 11.9% and the cytotoxicity at 6.25 µg/mL ([2]; HepG-2, 6.25 ug/ml, read-out: Toxicity %) was 88.1%. For the same molecule, the viability at 12.5 µg/mL ([2]; HepG-2, 12.5 ug/ml) was 9.45%, the cytotoxicity at 12.5 µg/mL ([2]; HepG-2, 12.5 ug/ml, read-out: Toxicity %) was 90.5% and the viability at 25 µg/mL ([2]; HepG-2, 25 ug/ml) was 7.22%. The cytotoxicity at 25 µg/mL ([2]; HepG-2, 25 ug/ml, read-out: Toxicity %) was 92.8%, the IC50 ([2]; MTT, HepG-2, read-out: Cytotoxicity against cancer cells IC50 HepG-2) was 1436 ± 7.3 nM and the “TNF-alpha ±SE” value ([3]; HepG-2, at IC50 concentrations) was 32.07 ± 2.32 ng/L. The “TNF-alpha ±SE” value ([3]; raw data, HepG2) was 27.34 ng/L, the viability at 0.195 µmol ([4]; MCF-7, 0.195 umol) was 81.5% and the cytotoxicity at 0.195 µmol ([4]; MCF-7, 0.195 umol, read-out: Toxicity %) was 18.5%. The viability at 0.391 µmol ([4]; MCF-7, 0.391 umol) was 62.1%, the cytotoxicity at 0.391 µmol ([4]; MCF-7, 0.391 umol, read-out: Toxicity %) was 37.9% and the viability at 0.781 µmol ([4]; MCF-7, 0.781 umol) was 32.7%. The cytotoxicity at 0.781 µmol ([4]; MCF-7, 0.781 umol, read-out: Toxicity %) was 67.3%, the viability at 1.563 µmol ([4]; MCF-7, 1.563 umol) was 19% and the cytotoxicity at 1.563 µmol ([4]; MCF-7, 1.563 umol, read-out: Toxicity %) was 81%. The viability at 3.125 µmol ([4]; MCF-7, 3.125 umol) was 12.8%, the cytotoxicity at 3.125 µmol ([4]; MCF-7, 3.125 umol, read-out: Toxicity %) was 87.2% and the viability at 6.25 µmol ([4]; MCF-7, 6.25 umol) was 9.01%. The cytotoxicity at 6.25 µmol ([4]; MCF-7, 6.25 umol, read-out: Toxicity %) was 91%, the viability at 12.5 µmol ([4]; MCF-7, 12.5 umol) was 7.65% and the cytotoxicity at 12.5 µmol ([4]; MCF-7, 12.5 umol, read-out: Toxicity %) was 92.3%. For the same molecule, the viability at 25 µmol ([4]; MCF-7, 25 umol) was 6.46%, the cytotoxicity at 25 µmol ([4]; MCF-7, 25 umol, read-out: Toxicity %) was 93.5% and the IC50 ([4]; MTT, MCF-7, read-out: Cytotoxicity against cancer cells IC50 MCF-7) was 552.3 ± 1.7 nM. For the same molecule, the viability at 0.195 µmol ([5]; K-562, 0.195 umol) was 52.8%, the cytotoxicity at 0.195 µmol ([5]; K-562, 0.195 umol, read-out: Toxicity %) was 47.2% and the viability at 0.391 µmol ([5]; K-562, 0.391 umol) was 45.2%. It also gave a cytotoxicity at 0.391 µmol ([5]; K-562, 0.391 umol, read-out: Toxicity %) of 54.8%, a viability at 0.781 µmol ([5]; K-562, 0.781 umol) of 31.6% and a cytotoxicity at 0.781 µmol ([5]; K-562, 0.781 umol, read-out: Toxicity %) of 68.4%. It also gave a viability at 1.563 µmol ([5]; K-562, 1.563 umol) of 21.1%, a cytotoxicity at 1.563 µmol ([5]; K-562, 1.563 umol, read-out: Toxicity %) of 78.9% and a viability at 3.125 µmol ([5]; K-562, 3.125 umol) of 10.3%. The cytotoxicity at 3.125 µmol ([5]; K-562, 3.125 umol, read-out: Toxicity %) was 89.7%, the viability at 6.25 µmol ([5]; K-562, 6.25 umol) was 8.78% and the cytotoxicity at 6.25 µmol ([5]; K-562, 6.25 umol, read-out: Toxicity %) was 91.2%. The viability at 12.5 µmol ([5]; K-562, 12.5 umol) was 7.43%, the cytotoxicity at 12.5 µmol ([5]; K-562, 12.5 umol, read-out: Toxicity %) was 92.6% and the viability at 25 µmol ([5]; K-562, 25 umol) was 5.91%. For the same molecule, the cytotoxicity at 25 µmol ([5]; K-562, 25 umol, read-out: Toxicity %) was 94.1%, the IC50 ([5]; MTT, K-562, read-out: Cytotoxicity against cancer cells IC50 K-562) was 266.4 ± 1.7 nM and the “IL-6R ± SE” value ([6]; HepG-2, at IC50 concentrations, control 44.10) was 11.93 ± 0.25 ng/L. For the same molecule, the IL-6R protein level ([6]; HepG-2, control 44.10%) was 11.93 ng/L, the “IL-6 ±SE” value ([6]; raw data, HepG2, control 44.10) was 28.78 ng/L and the “Caspase-3 ± SE” value [7] was 1.54 ± 0.11 ng/mL. The “Caspase-3 ± SE” value ([7]; listed as R5) was 1.54 ng/mL and the “caspase-3 expression level, fold increase” value ([7]; HepG-2, vs control cells) was 3.35 fold.
